Like-named read-outs stand apart in the source and are kept apart here.

Experiment [1] has as its target T1, DAT (Rattus norvegicus, UniProt P23977). The experiment can be described thus: transporter-mediated release in rat brain synaptosomes, DAT. It counts as biochemical. The settings on record: for DAT vs SERT Selectivity: SERT EC50 ÷ DAT EC50.
Experiment [2] addresses T2, SERT (Rattus norvegicus, UniProt P31652). As to the kind of experiment: transporter-mediated release in rat brain synaptosomes, SERT. The format is biochemical.
The test system of experiment [3] is DAT. Particulars: read-out: IC50 reuptake inhibitor at DAT; cited from earlier work.
For experiment [4], the system named is NET. The settings on record: read-out: IC50 reuptake inhibitor at NET; cited from earlier work.
Experiment [5] relates to SERT. Particulars: read-out: IC50 reuptake inhibitor at SERT; cited from earlier work.
For experiment [6], the system named is DAT. Particulars: cited from earlier work.
The test system of experiment [7] is SERT. Particulars: cited from earlier work.
In experiment [8] the target is T2, SERT. Particulars: cited from earlier work.
Experiment [9] addresses T1, DAT. Particulars: cited from earlier work.
Experiment [10] has as its target NET (Rattus norvegicus, UniProt Q63380). Particulars: read-out: EC50 as NET releasing agent, previously reported; cited from earlier work.
Experiment [11] concerns NET. The settings on record: read-out: IC50 reuptake inhibitor at NET; cited from earlier work. This is another data set of the same source.
The subject of experiment [12] is SERT. Particulars: read-out: IC50 reuptake inhibitor at SERT; cited from earlier work. The source holds these as a separate data set.

T2 sequence (P31652 whole entry): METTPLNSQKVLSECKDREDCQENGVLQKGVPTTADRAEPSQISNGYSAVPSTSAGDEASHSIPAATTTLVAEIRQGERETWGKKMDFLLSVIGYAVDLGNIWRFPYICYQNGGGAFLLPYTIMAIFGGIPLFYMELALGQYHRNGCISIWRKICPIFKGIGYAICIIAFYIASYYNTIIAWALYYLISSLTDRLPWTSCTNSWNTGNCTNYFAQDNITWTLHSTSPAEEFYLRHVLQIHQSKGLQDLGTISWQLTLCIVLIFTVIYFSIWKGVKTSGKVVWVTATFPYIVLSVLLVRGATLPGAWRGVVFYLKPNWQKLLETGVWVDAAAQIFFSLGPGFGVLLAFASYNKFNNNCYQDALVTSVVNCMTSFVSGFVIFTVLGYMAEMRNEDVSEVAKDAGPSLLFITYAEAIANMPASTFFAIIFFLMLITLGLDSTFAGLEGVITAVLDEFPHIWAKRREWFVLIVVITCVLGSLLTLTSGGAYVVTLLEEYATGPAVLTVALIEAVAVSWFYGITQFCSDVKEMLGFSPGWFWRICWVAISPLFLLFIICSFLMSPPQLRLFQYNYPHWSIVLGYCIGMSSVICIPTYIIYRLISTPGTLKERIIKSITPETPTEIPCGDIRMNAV
T1 sequence (P23977 whole entry): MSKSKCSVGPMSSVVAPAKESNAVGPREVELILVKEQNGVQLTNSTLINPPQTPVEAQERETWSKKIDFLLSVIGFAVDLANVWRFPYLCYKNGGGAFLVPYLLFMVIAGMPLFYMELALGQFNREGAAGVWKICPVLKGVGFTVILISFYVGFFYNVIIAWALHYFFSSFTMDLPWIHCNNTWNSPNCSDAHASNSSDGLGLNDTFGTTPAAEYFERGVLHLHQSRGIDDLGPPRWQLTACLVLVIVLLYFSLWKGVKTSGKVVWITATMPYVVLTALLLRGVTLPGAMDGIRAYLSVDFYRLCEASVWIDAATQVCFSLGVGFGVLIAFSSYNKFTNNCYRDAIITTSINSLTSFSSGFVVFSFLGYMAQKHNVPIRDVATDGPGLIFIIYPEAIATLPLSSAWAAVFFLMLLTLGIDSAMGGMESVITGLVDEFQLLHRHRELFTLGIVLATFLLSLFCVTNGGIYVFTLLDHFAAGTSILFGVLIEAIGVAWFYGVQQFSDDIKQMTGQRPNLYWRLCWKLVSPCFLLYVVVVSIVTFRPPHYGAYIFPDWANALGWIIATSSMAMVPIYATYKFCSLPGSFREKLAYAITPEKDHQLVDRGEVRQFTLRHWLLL
NET (Rattus norvegicus, UniProt Q63380), sequence (Q63380 1-617): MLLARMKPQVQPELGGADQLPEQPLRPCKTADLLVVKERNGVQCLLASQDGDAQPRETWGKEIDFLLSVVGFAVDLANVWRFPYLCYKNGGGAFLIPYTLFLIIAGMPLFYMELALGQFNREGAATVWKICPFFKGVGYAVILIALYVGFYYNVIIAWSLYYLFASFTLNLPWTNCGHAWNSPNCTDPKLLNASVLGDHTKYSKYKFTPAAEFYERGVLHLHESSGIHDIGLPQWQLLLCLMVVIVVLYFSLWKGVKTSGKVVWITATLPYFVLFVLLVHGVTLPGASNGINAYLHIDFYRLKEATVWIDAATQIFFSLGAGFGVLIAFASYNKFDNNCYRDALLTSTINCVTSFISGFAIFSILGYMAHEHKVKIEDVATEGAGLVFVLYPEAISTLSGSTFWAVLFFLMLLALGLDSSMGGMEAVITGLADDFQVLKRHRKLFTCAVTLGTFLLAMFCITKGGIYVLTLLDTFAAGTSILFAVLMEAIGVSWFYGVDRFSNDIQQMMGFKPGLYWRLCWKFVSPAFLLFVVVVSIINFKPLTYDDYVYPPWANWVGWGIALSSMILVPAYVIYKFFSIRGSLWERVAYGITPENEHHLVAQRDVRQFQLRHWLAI

What is called EC50 is the concentration at which the effect is half-maximal. Turning to `CNC(C)C(=O)c1ccccc1Br.Cl` (stereo not drawn) [2b, 1-(2-Bromophenyl)-2-(methylamino)propan-1-one Hydrochloride], the values for the 50% effective concentration (EC50) at DAT [1] and at SERT [2] were 650 nM and 2840 nM, respectively. Besides, the “DAT vs SERT Selectivity” value on DAT [1] (2-substituted series) worked out at 4.
Broadly, the IC50 is the concentration that inhibits the measured activity by half. Turning to `CNC(C)C(=O)c1cccc(C)c1.Cl` (stereo not drawn) [3c, 2-(Methylamino)-1-(3-methylphenyl)propan-1-one Hydrochloride], the values for the 50% effective concentration (EC50) on DAT [1] and at SERT [2] were 28 nM and 268 nM, respectively. Besides, the “DAT vs SERT Selectivity” value at DAT [1] (3-substituted series) is reported as 10. Further, the values for the half-maximal inhibitory concentration (IC50) in the experiment on DAT [3], in the experiment on NET [4] and in the experiment with SERT [5] were 2600 nM, 270 nM and 9500 nM, respectively.
For `CNC(C)C(=O)c1ccccc1C(F)(F)F` (stereo not drawn) [2-CF3 analog], the “less potent than 3e as a releasing agent at DAT” value in the experiment on DAT [6] is on record as above 10 fold. Besides, in the experiment on SERT [7], the “less potent than 3e as a releasing agent at SERT” value is listed as above 10 fold.
For `CNC(C)C(=O)c1ccc(C(F)(F)F)cc1` (stereo not drawn) [4e], at SERT [8], the “SERT selectivity (SERT vs DAT) as a releasing agent” value was 14 fold.
Consider `CNC(C)C(=O)c1cccc(Cl)c1` (stereo not drawn) [3a, 3-Chloromethcathinone], for which the “DAT vs SERT Selectivity” value on DAT [1] (3-substituted series) stood at 8. The EC50 at DAT [9] (read-out: EC50 as DAT releasing agent, previously reported) is 29 nM; at NET [10], 40 nM; at SERT [8] (read-out: EC50 as SERT releasing agent, previously reported), 212 nM.
`CNC(C)C(=O)c1ccccc1C.Cl` (stereo not drawn) [2c, 2-(Methylamino)-1-(2-methylphenyl)propan-1-one Hydrochloride]: the half-maximal effective concentration (EC50) is 81 nM at DAT [1] and 490 nM on SERT [2]. Moreover, the “DAT vs SERT Selectivity” value on DAT [1] (2-substituted series) turned out to be 6.
`CNC(C)C(=O)c1cccc(C(F)(F)F)c1.Cl` (stereo not drawn) [3e, 2-(Methylamino)-1-(3-(trifluoromethyl)phenyl)propan-1-one Hydrochloride]: the concentration for a half-maximal effect (EC50) at DAT [1] worked out at 714 nM; at SERT [2] it was 281 nM. The “DAT vs SERT Selectivity” value on DAT [1] (3-substituted series) amounted to 0.4.
The matching figures for `CNC(C)C(=O)c1cccc(OC)c1.Cl` (stereo not drawn) [3d, 2-(Methylamino)-1-(3-methoxyphenyl)propan-1-one Hydrochloride]: 109 nM, 683 nM and 6.
As for `CNC(C)C(=O)c1cccc(Br)c1.Cl` (stereo not drawn) [3b, 1-(3-Bromophenyl)-2-(methylamino)propan-1-one Hydrochloride], the EC50 on DAT [1] was 21 nM; on SERT [2], 136 nM. Besides, the “DAT vs SERT Selectivity” value on DAT [1] (3-substituted series) is listed as 6. The concentration for half-maximal inhibition (IC50) in the experiment with NET [11] was 158 nM; in the experiment with SERT [12] it was 2000 nM.
With `CNC(C)C(=O)c1ccccc1Cl.Cl` (stereo not drawn) [2a, 1-(2-Chlorophenyl)-2-(methylamino)propan-1-one Hydrochloride], the EC50 worked out at 179 nM on DAT [1] and 2810 nM at SERT [2]. For the same compound, the “DAT vs SERT Selectivity” value on DAT [1] (2-substituted series) is 16.
With `CNC(C)C(=O)c1ccccc1` (stereo not drawn) [compound 1, Methcathinone], the “DAT vs SERT Selectivity” value on DAT [1] (2-substituted series) was 103; on DAT [1] (3-substituted series) it was 279. In addition, the “selectivity for DAT vs SERT as a releasing agent” value on DAT [9] is above 300 fold.
In the case of `CNC(C)C(=O)c1ccccc1OC.Cl` (stereo not drawn) [2d, 1-(2-Methoxyphenyl)-2-(methylamino)propan-1-one Hydrochloride], the EC50 was determined as 920 nM on DAT [1] and 7220 nM at SERT [2]. For the same compound, the “DAT vs SERT Selectivity” value on DAT [1] (2-substituted series) amounted to 8.

Source of the values: PMC8269283 (ACS chemical neuroscience, 2018).
